Laboratory results: the supplement of paper PMC10307832

How the values were obtained:
Assay in all cases: relative viability (nuclei count vs DMSO), 5 days (fraction); higher = more cells survive
[1] = compound: CC1(COc2ccc3c(c2)ncn3-c2ccc3cccc(N4CCC(N)CC4)c3n2)COC1 [Crenolanib] + COc1cccc2cc(-c3nc([C@H]4CC[C@H](C(=O)O)CC4)n4ncnc(N)c34)[nH]c12 [OSI-027] (partner 0.5 µM)
Outline: (§1)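 For relative viability, nuclei counts in treated wells were divided by those in vehicle wells. Lung cancer cell lines had been pin-tool dosed in 1536-well plates the day after seeding and cultured for 5 days, then fixed and stained in one step (final 0.05% Triton X-100, 1% formaldehyde, 1 ug/ml Hoechst) and imaged at 4×. Doses were one drug alone or a fixed anchor-drug dose plus five library-drug doses (not always all listed) in √10 steps, and values are duplicate-plate medians.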

[2] = compound: O=C1NC(=O)[C@@H](c2cn3c4c(cccc24)CCC3)[C@@H]1c1c[nH]c2ccccc12 [Tivantinib] + CCNC(=O)c1noc(-c2cc(C(C)C)c(O)cc2O)c1-c1ccc(CN2CCOCC2)cc1 [Luminespib] (partner 0.01 µM)
Outline: as §1

[3] = compound: O=C1NC(=O)[C@@H](c2cn3c4c(cccc24)CCC3)[C@@H]1c1c[nH]c2ccccc12 [Tivantinib] + CS(=O)(=O)CCNCc1ccc(-c2ccc3ncnc(Nc4ccc(OCc5cccc(F)c5)c(Cl)c4)c3c2)o1 [Lapatinib] (partner 2 µM)
Outline: as §1

[4] = compound: O=C1NC(=O)[C@@H](c2cn3c4c(cccc24)CCC3)[C@@H]1c1c[nH]c2ccccc12 [Tivantinib] + NC(=O)Nc1cc(-c2cccc(F)c2)sc1C(=O)N[C@H]1CCCNC1 [AZD7762] (partner 0.2 µM)
Outline: as §1

Cell Line | relative viability ([1]; first compound 0.01 µM) | relative viability ([1]; first compound 0.03162 µM) | relative viability ([1]; first compound 0.1 µM) | relative viability ([1]; first compound 0.3162 µM) | relative viability ([1]; first compound 1 µM) | relative viability ([2]; first compound 0.01 µM) | relative viability ([2]; first compound 0.03162 µM) | relative viability ([2]; first compound 0.1 µM) | relative viability ([2]; first compound 0.3162 µM) | relative viability ([3]; first compound 0.01 µM) | relative viability ([3]; first compound 0.1 µM) | relative viability ([3]; first compound 0.3162 µM) | relative viability ([4]; first compound 0.01 µM) | relative viability ([4]; first compound 0.03162 µM) | relative viability ([4]; first compound 0.1 µM) | relative viability ([4]; first compound 0.3162 µM) | relative viability ([3]; first compound 0.03162 µM)
HOP-62 | 0.868 | 0.833 | 0.872 | 1.03 | 0.722 | 0.889 | 0.892 | 0.917 | 0.89 | 1.15 | 0.956 | 1.16 | 0.503 | 0.62 | 0.515 | 0.667 | –
LC-2-ad | 0.939 | 0.793 | 0.792 | 0.706 | 0.554 | 0.995 | 1.17 | 0.94 | 0.906 | 1.03 | 0.928 | 1.06 | 0.776 | 0.681 | 0.817 | 0.758 | 0.929
LCLC-97TM1 | 0.601 | 0.51 | 0.469 | 0.667 | 0.374 | 0.773 | 0.788 | 0.673 | 0.764 | 1.04 | 1.04 | 0.889 | 0.268 | 0.311 | 0.197 | 0.25 | 0.852
LK-2 | 0.208 | 0.195 | 0.233 | 0.17 | 0.183 | 0.217 | – | 0.208 | 0.197 | 0.955 | 0.841 | 0.872 | 0.447 | 0.214 | 0.288 | 0.363 | –
LOU-NH91 | 0.765 | 0.729 | 0.642 | 0.717 | 0.624 | 0.373 | 0.369 | 0.309 | 0.367 | 0.83 | 0.78 | 0.72 | 0.784 | 0.719 | 0.702 | 0.738 | 0.702
LU99A | 0.305 | 0.318 | 0.257 | 0.331 | 0.264 | 0.277 | 0.26 | 0.235 | 0.208 | 0.987 | 0.889 | 0.905 | 0.318 | 0.356 | 0.307 | 0.278 | 1.14
LXF-289 | 0.844 | 0.764 | 0.752 | 0.786 | 0.706 | 0.757 | 0.646 | 0.599 | 0.723 | 0.925 | 0.858 | 0.968 | 1.14 | 1.13 | 1.07 | 1.08 | 0.861
NCI-H23 | 0.689 | 0.649 | 0.594 | 0.783 | 0.351 | 0.278 | – | 0.215 | 0.226 | 1.05 | 1.03 | 1.18 | 0.283 | 0.23 | 0.319 | 0.336 | 1.22
NCI-H322M | 0.648 | 0.574 | 0.575 | 0.634 | 0.534 | 0.977 | 0.874 | 0.737 | – | 0.568 | 0.609 | 0.588 | 0.613 | 0.419 | 0.571 | – | 0.488
NCI-H358 | 0.849 | 0.777 | 0.675 | 0.744 | 0.565 | 0.323 | 0.332 | 0.377 | 0.157 | 0.53 | 0.418 | 0.403 | 0.443 | 0.576 | 0.497 | 0.279 | 0.42
NCI-H460 | 0.825 | 0.685 | 0.682 | 0.752 | 0.598 | 0.0321 | 0.0359 | 0.0227 | 0.0374 | 0.905 | 0.889 | 0.99 | 0.513 | 0.739 | 0.517 | 0.64 | 0.922
NCI-H596 | 0.866 | 0.84 | 0.696 | 0.703 | 0.731 | 1.01 | 1.01 | 1.08 | 0.935 | 1.04 | 1.01 | 0.964 | 0.994 | 0.975 | 1.09 | 1.38 | 1.05
NCI-H647 | 0.588 | 0.623 | 0.79 | 0.709 | 0.705 | 0.155 | 0.141 | 0.14 | 0.135 | 1.09 | 0.86 | 1.07 | 0.509 | 0.314 | 0.445 | 0.585 | 0.86
NCI-H650 | 0.564 | 0.534 | 0.52 | 0.492 | 0.348 | 0.895 | 0.798 | 0.739 | 0.432 | 0.907 | 1.02 | 0.964 | 1.17 | 0.818 | 1 | 1.21 | –
NCI-H727 | 0.782 | 0.649 | 0.731 | 0.614 | 0.431 | 0.334 | 0.37 | 0.514 | 0.253 | 0.824 | 0.802 | – | 0.535 | 0.421 | 0.551 | – | 0.689
NCI-H838 | 0.378 | 0.358 | 0.418 | 0.366 | 0.283 | 0.276 | 0.308 | 0.302 | 0.335 | 1.04 | 0.891 | 0.894 | 1 | 0.973 | 0.872 | 0.906 | 0.96
